Each structure is given as a SMILES string.

For orientation: Ki means a measure of affinity in units of concentration, obtained from inhibition or displacement. The EC50 is the concentration at which the effect is half-maximal. A low value points to an effect from little substance. The CC50 is the concentration that lowers cell viability or growth by half. A high value points to lower toxicity to the cells. By IC50 is commonly meant the point on the concentration scale where inhibition reaches its midpoint. Lower therefore signals greater potency.

Data set [1] can be described thus: Inhibition of HCV NS3 protease by FRET assay. The arrangement: species or system Hepacivirus hominis.
Another data set concerns Hepatitis C virus. The data set can be described thus: Antiviral activity against Hepatitis C virus infected human hepatoma cells by replicon assay. In kind it is functional, organism-based, Hepacivirus hominis. In general terms: In antiviral work, replicon cells carry a viral genome segment that copies itself.
The nature of data set [2]: Cytotoxicity against human hepatoma cells. In kind it is cell-based.

As for `COc1ccc2c(O[C@@H]3C[C@@H](C(=O)Nc4ccc(Br)cc4)N(C(=O)[C@@H](NC(=O)OC(C)(C)C)C(C)(C)C)C3)cc(-c3ccccc3)nc2c1`, in data set [1], the Ki was found to be 1800 nM.
Still for that read-out and setting: next, `COc1ccc2c(O[C@@H]3C[C@@H](C(=O)Nc4cccc(Br)c4)N(C(=O)[C@@H](NC(=O)OC(C)(C)C)C(C)(C)C)C3)cc(-c3ccccc3)nc2c1`: 1400 nM.
Same read-out and setting: next, `COc1ccc2c(O[C@@H]3C[C@@H](C(=O)Nc4ccccc4CC(=O)O)N(C(=O)[C@@H](NC(=O)OC(C)(C)C)C(C)(C)C)C3)cc(-c3ccccc3)nc2c1`: 17000 nM.
Same read-out and setting: next, `COc1ccc2c(O[C@@H]3C[C@@H](C(=O)Nc4ccccc4C(=O)O)N(C(=O)[C@@H](NC(=O)OC(C)(C)C)C(C)(C)C)C3)cc(-c3ccccc3)nc2c1`: 5000 nM.
In turn, `CC(C)(C)NC(=O)N[C@H](C(=O)N1C[C@H]2[C@@H]([C@H]1C(=O)NC(CC1CCC1)C(=O)C(N)=O)C2(C)C)C(C)(C)C` (stereo partly drawn) [BOCEPREVIR] yielded a Ki in data set [1] of 14 nM.
In data set [1], `COc1ccc2c(O[C@@H]3C[C@@H](C(=O)Nc4cc(C(F)(F)F)ccc4C(=O)NS(=O)(=O)c4ccccc4)N(C(=O)[C@@H](NC(=O)OC(C)(C)C)C(C)(C)C)C3)cc(-c3ccccc3)nc2c1` gave a Ki of 350 nM. The EC50 in the data set with Hepatitis C virus was 5200 nM. In data set [2], this molecule yielded a CC50 of 28000 nM.
`COc1ccc2c(O[C@@H]3C[C@H]4C(=O)N[C@]5(C(=O)O)C[C@H]5/C=C\CCCCC[C@H](NC(=O)OC5CCCC5)C(=O)N4C3)cc(-c3csc(NC(C)C)n3)nc2c1` [CILUPREVIR] came in with a Ki in data set [1] of 0.66 nM. Moreover, a half-maximal response in the data set with Hepatitis C virus (EC50) required 3 nM.
As for `COc1ccc2c(O[C@@H]3C[C@@H](C(=O)Nc4ccc(C(=O)NS(=O)(=O)c5ccccc5)cc4)N(C(=O)[C@@H](NC(=O)OC(C)(C)C)C(C)(C)C)C3)cc(-c3ccccc3)nc2c1`, the affinity in data set [1] corresponds to a Ki of 1100 nM.
On to `COc1ccc(S(=O)(=O)NC(=O)c2ccccc2NC(=O)[C@@H]2C[C@@H](Oc3cc(-c4ccccc4)nc4cc(OC)ccc34)CN2C(=O)[C@@H](NC(=O)OC(C)(C)C)C(C)(C)C)cc1`, for which affinity in data set [1] was put at a Ki of 1200 nM. The Ki values of the last two molecules are within 1.5-fold of each other.
Still for that read-out and setting: next, `COc1ccc2c(O[C@@H]3C[C@@H](C(=O)Nc4c(C)cccc4C(=O)NS(=O)(=O)c4ccccc4)N(C(=O)[C@@H](NC(=O)OC(C)(C)C)C(C)(C)C)C3)cc(-c3ccccc3)nc2c1`: 3200 nM; `COc1ccc2c(O[C@@H]3C[C@@H](C(=O)Nc4ccccc4Br)N(C(=O)[C@@H](NC(=O)OC(C)(C)C)C(C)(C)C)C3)cc(-c3ccccc3)nc2c1`: 3900 nM.
Still for that read-out and setting: next, `COc1ccc2c(O[C@@H]3C[C@@H](C(=O)Nc4ccccc4C(=O)NS(=O)(=O)C4CC4)N(C(=O)[C@@H](NC(=O)OC(C)(C)C)C(C)(C)C)C3)cc(-c3ccccc3)nc2c1`: 2000 nM.
The same measure, in the same setting: next, `COc1ccc2c(O[C@@H]3C[C@@H](C(=O)Nc4ccccc4C(=O)NS(=O)(=O)c4cccs4)N(C(=O)[C@@H](NC(=O)OC(C)(C)C)C(C)(C)C)C3)cc(-c3ccccc3)nc2c1`: 920 nM.
Molecule `COc1ccc2c(O[C@@H]3C[C@@H](C(=O)O)N(C(=O)[C@@H](NC(=O)OC(C)(C)C)C(C)(C)C)C3)cc(-c3ccccc3)nc2c1` [CORBOXYLIC ACID] gave a Ki in data set [1] of 66000 nM.
The same measure, in the same setting: next, `COc1ccc2c(O[C@@H]3C[C@@H](C(=O)Nc4ccccc4C(=O)NS(=O)(=O)c4ccc(C(F)(F)F)cc4)N(C(=O)[C@@H](NC(=O)OC(C)(C)C)C(C)(C)C)C3)cc(-c3ccccc3)nc2c1`: 310 nM.
Still for that read-out and setting: next, `COc1ccc2c(O[C@@H]3C[C@@H](C(=O)Nc4ccccc4C(=O)NS(C)(=O)=O)N(C(=O)[C@@H](NC(=O)OC(C)(C)C)C(C)(C)C)C3)cc(-c3ccccc3)nc2c1`: 5900 nM.
Same read-out and setting: next, `COc1ccc2c(O[C@@H]3C[C@@H](C(=O)Nc4ccccc4C(=O)NS(=O)(=O)Cc4ccccc4)N(C(=O)[C@@H](NC(=O)OC(C)(C)C)C(C)(C)C)C3)cc(-c3ccccc3)nc2c1`: 610 nM.
The molecule `CCC[C@H](NC(=O)[C@@H]1[C@H]2CCC[C@H]2CN1C(=O)[C@@H](NC(=O)[C@@H](NC(=O)c1cnccn1)C1CCCCC1)C(C)(C)C)C(=O)C(=O)NC1CC1` [TELAPREVIR] came in with a Ki in data set [1] of 39 nM. The molecule further yielded an EC50 in the data set on Hepatitis C virus of 310 nM.
For the molecule `COc1ccc2c(O[C@@H]3C[C@@H](C(=O)Nc4cccc(C(=O)NS(=O)(=O)c5ccccc5)c4)N(C(=O)[C@@H](NC(=O)OC(C)(C)C)C(C)(C)C)C3)cc(-c3ccccc3)nc2c1`, in data set [1], the Ki was determined as 780 nM.
Same read-out and setting: next, `COc1ccc2c(O[C@@H]3C[C@@H](C(=O)Nc4ccc(C(=O)O)cc4)N(C(=O)[C@@H](NC(=O)OC(C)(C)C)C(C)(C)C)C3)cc(-c3ccccc3)nc2c1`: 12000 nM.
For the molecule `CC(C)(C)OC(=O)N[C@H]1CCCCC/C=C\[C@@H]2C[C@@]2(C(=O)NS(=O)(=O)C2CC2)NC(=O)[C@@H]2C[C@@H](OC(=O)N3Cc4cccc(F)c4C3)CN2C1=O` [DANOPREVIR], in data set [1], the IC50 was under 0.25 nM. The molecule further had an EC50 in the data set on Hepatitis C virus of 2.1 nM.
Molecule `COc1ccc2c(O[C@@H]3C[C@@H](C(=O)Nc4cccc(C(=O)O)c4)N(C(=O)[C@@H](NC(=O)OC(C)(C)C)C(C)(C)C)C3)cc(-c3ccccc3)nc2c1` had a Ki in data set [1] of 6800 nM.
In data set [1], `COc1ccc2c(O[C@@H]3C[C@@H](C(=O)Nc4ccccc4C(=O)NS(=O)(=O)c4ccccc4)N(C(=O)[C@@H](NC(=O)OC(C)(C)C)C(C)(C)C)C3)cc(-c3ccccc3)nc2c1` gave a Ki of 830 nM.
